In paper PMC5979531, “Structural Requirements of Alkylglyceryl-L-Ascorbic Acid Derivatives for Melanogenesis Inhibitory Activity” (International Journal of Molecular Sciences, 2018):

What was measured:
tyrosinase from mushroom = experiment: Mushroom tyrosinase activity; format: biochemical
Protocol: Tyrosinase activities using L-tyrosine or L-DOPA as a substrate were determined according to the protocols described previously. Briefly, samples, L-tyrosine (2.5 mM, or L-DOPA, 3.0 mM), mushroom tyrosinase (46 units/mL), and phosphate buffer were mixed in a 96-well plate and incubated at 25 °C. (L-tyrosine; 30 min, L-DOPA; 5 min). The absorbance was then measured at 492 nm.

TRP-1 mRNA = experiment: Expression of TRP-1 mRNA (qRT-PCR); format: cell-based, murine; details: B16 4A5 cells, theophylline 1 mM, 72 h
Protocol: (§1) The expression of tyrosinase, TRP-1, and TRP-2 mRNA was assessed according to previously reported methods. Briefly, murine B16 melanoma 4A5 cells were seeded into 96-well plates in DMEM. After 24 h of culture, a test compound and theophylline (1 mM) were added and incubated for 72 h. Then, the amount of each mRNA was quantified by quantitative reverse transcription PCR.

[1] = Cell viability of B16 melanoma 4A5 cells; format: cell-based, murine; details: mouse, B16 4A5 cells
Protocol: (§2) The effects on theophylline-stimulated melanogenesis and viability of B16 melanoma 4A5 cells were examined according to previously described protocols. Briefly, murine B16 melanoma 4A5 cells were seeded into 48-well plates in DMEM. After 24 h of culture, a test compound and theophylline (1 mM) were added and incubated for 72 h. The melanin content and cell viability were then measured. IC50 values were determined graphically.

TRP-2 mRNA = experiment: Expression of TRP-2 mRNA (qRT-PCR); format: cell-based, murine; details: 3 µM, B16 4A5 cells, theophylline 1 mM, 72 h
Protocol: as §1

B16 melanoma 4A5 cells = experiment: Theophylline-stimulated melanogenesis inhibition (melanin content); format: cell-based, murine; details: for inhibition at 3 µM / inhibition at 10 µM / inhibition at 30 µM / inhibition at 100 µM / IC50: Mus musculus, 72 h; for inhibition at 3 µM / inhibition at 10 µM / inhibition at 30 µM / inhibition at 100 µM: theophylline-stimulated B16 4A5 cells; for IC50: theophylline (1 mM)-stimulated B16 melanoma 4A5 cells
Protocol: as §2
Inhibition (%) was calculated using the following formula, where A and B indicate the optical density of the vehicle- and test compound-treated groups, respectively, and C indicates cell viability (%) (see below): Inhibition (%) = [(A − B)/A]/(C/100) × 100.

tyrosinase mRNA = experiment: Expression of tyrosinase mRNA (qRT-PCR); format: cell-based, murine; details: 3 µM, B16 4A5 cells, theophylline 1 mM, 72 h
Protocol: as §1

Row | Structure (SMILES) | Inhibition (%) of mushroom tyrosinase (tyrosinase from mushroom; Substrate: L-DOPA, 10 µM) [%] | Inhibition (%) of mushroom tyrosinase (tyrosinase from mushroom; Substrate: L-DOPA, 30 µM) [%] | Inhibition (%) of mushroom tyrosinase (tyrosinase from mushroom; Substrate: L-Tyrosine, 10 µM) [%] | Inhibition (%) of mushroom tyrosinase (tyrosinase from mushroom; Substrate: L-Tyrosine, 30 µM) [%] | IC50 (B16 melanoma 4A5 cells) [µM] | Inhibition (%) of mushroom tyrosinase (tyrosinase from mushroom; Substrate: L-DOPA, 100 µM) [%] | Inhibition (%) of mushroom tyrosinase (tyrosinase from mushroom; Substrate: L-Tyrosine, 100 µM) [%] | TRP-1 mRNA/β-actin mRNA (TRP-1 mRNA; 3 µM) | TRP-1 mRNA/β-actin mRNA (TRP-1 mRNA; 10 µM) | viability at 72 h, 3 µM [1] [%] | viability at 72 h, 10 µM [1] [%] | viability at 72 h, 30 µM [1] [%] | viability at 72 h, 100 µM [1] [%] | TRP-2 mRNA/β-actin mRNA (TRP-2 mRNA) | inhibition at 3 µM (B16 melanoma 4A5 cells) [%] | inhibition at 10 µM (B16 melanoma 4A5 cells) [%] | inhibition at 30 µM (B16 melanoma 4A5 cells) [%] | inhibition at 100 µM (B16 melanoma 4A5 cells) [%] | Tyrosinase mRNA/β-actin mRNA (tyrosinase mRNA) | potency relative to arbutin (melanogenesis inhibition) (B16 melanoma 4A5 cells; ratio of IC50 values vs arbutin)
1 | CCCCCCCCCOC1=C(OCC(O)CO)[C@@H]([C@@H](O)CO)OC1=O (stereo partly drawn) [compound 9, 3-O-(2,3-dihydroxypropyl)-2-O-nonyl-AsA] |  | 4.8 ± 6.6 |  | 4.0 ± 6.1 | 28.8 | 0.9 ± 6.0 | −1.2 ± 4.5 |  |  | 99.2 | 88.9 | 77.6 | 58.4 |  | 0.2 ± 4.4 | 19.1 ± 1.3 | 51.9 ± 4.6 | 91.6 ± 1.2 |  | 
2 | CCCCCCCCCCOC1=C(OCC(O)CO)C(=O)O[C@@H]1[C@@H](O)CO (stereo partly drawn) [compound 24, 3-O-decyl-2-O-(2,3-dihydroxypropyl)-AsA] | 0.7 ± 3.8 | −5.3 ± 4.2 | −4.1 ± 5.3 | −3.1 ± 4.1 | 23.5 |  |  |  |  | 92.5 | 87.1 | 68.5 | 34.3 |  | -5.8 ± 6 | 20.9 ± 5.4 | 64.3 ± 3.8 | 103 ± 2.4 |  | 
3 | CCCCCCCOC1=C(OCC(O)CO)[C@@H]([C@@H](O)CO)OC1=O (stereo partly drawn) [compound 7, 3-O-(2,3-dihydroxypropyl)-2-O-heptyl-AsA] |  | −0.7 ± 3.1 |  | −1.7 ± 4.0 | 89.1 | 1.1 ± 4.8 | 1.0 ± 2.4 |  |  | 101 | 95.4 | 91.9 | 79.7 |  | -4.2 ± 6.3 | 3.4 ± 5.2 | 20 ± 6.4 | 52.2 ± 5 |  | 
4 | CCCCCCCCCCOC1=C(OCC(O)CO)[C@@H]([C@@H](O)CO)OC1=O (stereo partly drawn) [compound 10, 2-O-decyl-3-O-(2,3-dihydroxypropyl)-AsA] | 0.4 ± 1.1 | 2.4 ± 2.9 | 1.3 ± 3.1 | 0.4 ± 1.7 | 13 |  |  |  |  | 98.6 | 85.9 | 73.5 | 27.9 |  | 3.7 ± 7.8 | 39.2 ± 4.1 | 78.1 ± 4.8 | 98 ± 3.7 |  | 
5 | CCCCCCCCCCCCCOC1=C(OCC(O)CO)C(=O)O[C@@H]1[C@@H](O)CO (stereo partly drawn) [compound 27, 2-O-(2,3-dihydroxypropyl)-3-O-tridecyl-AsA] | −2.0 ± 3.3 | −3.2 ± 2.7 | −3.3 ± 8.1 | −5.4 ± 1.9 | 11.7 |  |  |  |  | 105 | 84.3 | 40.2 | 21 |  | 20.1 ± 5.7 | 44.2 ± 3.9 | 96.6 ± 3 | 113 ± 10.1 |  | 

Continued, in another order:

Row | Inhibition (%) of mushroom tyrosinase (tyrosinase from mushroom; Substrate: L-DOPA, 10 µM) [%] | Inhibition (%) of mushroom tyrosinase (tyrosinase from mushroom; Substrate: L-DOPA, 30 µM) [%] | Inhibition (%) of mushroom tyrosinase (tyrosinase from mushroom; Substrate: L-Tyrosine, 10 µM) [%] | Inhibition (%) of mushroom tyrosinase (tyrosinase from mushroom; Substrate: L-Tyrosine, 30 µM) [%] | IC50 (B16 melanoma 4A5 cells) [µM] | Inhibition (%) of mushroom tyrosinase (tyrosinase from mushroom; Substrate: L-DOPA, 100 µM) [%] | Inhibition (%) of mushroom tyrosinase (tyrosinase from mushroom; Substrate: L-Tyrosine, 100 µM) [%] | Structure (SMILES) | TRP-1 mRNA/β-actin mRNA (TRP-1 mRNA; 3 µM) | TRP-1 mRNA/β-actin mRNA (TRP-1 mRNA; 10 µM) | viability at 72 h, 3 µM [1] [%] | viability at 72 h, 10 µM [1] [%] | viability at 72 h, 30 µM [1] [%] | viability at 72 h, 100 µM [1] [%] | TRP-2 mRNA/β-actin mRNA (TRP-2 mRNA) | inhibition at 3 µM (B16 melanoma 4A5 cells) [%] | inhibition at 10 µM (B16 melanoma 4A5 cells) [%] | inhibition at 30 µM (B16 melanoma 4A5 cells) [%] | inhibition at 100 µM (B16 melanoma 4A5 cells) [%] | Tyrosinase mRNA/β-actin mRNA (tyrosinase mRNA) | potency relative to arbutin (melanogenesis inhibition) (B16 melanoma 4A5 cells; ratio of IC50 values vs arbutin)
6 | −8.9 ± 3.5 | −8.2 ± 4.3 | −7.0 ± 6.7 | −9.7 ± 2.7 | 11.1 |  |  | CCCCCCCCCCCCCCOC1=C(OCC(O)CO)[C@@H]([C@@H](O)CO)OC1=O (stereo partly drawn) [compound 14, 3-O-(2,3-dihydroxypropyl)-2-O-tetradecyl-AsA] | 1.02 ± 0.27 | 0.92 ± 0.22 | 101 | 89.1 | 56.3 | 21 | 0.58 ± 0.06 | 6.3 ± 2.6 | 48.4 ± 2.2 | 97.6 ± 1.8 | 100 ± 18.2 | 0.78 ± 0.10 | 
7 |  | −13.1 ± 3.3 |  | −11.5 ± 1.6 | > 100 | −4.5 ± 2.0 | −14.4 ± 1.8 | CCCCCCCCOC1=C(OCC(O)CO)C(=O)O[C@@H]1[C@@H](O)CO (stereo partly drawn) [compound 22, 2-O-(2,3-dihydroxypropyl)-3-O-octyl-AsA] |  |  | 98.8 | 99.3 | 91.6 | 83 |  | -10.4 ± 6 | 1 ± 7 | 2.3 ± 5.9 | 34.8 ± 8.2 |  | 
8 | −4.7 ± 5.0 | −4.4 ± 1.8 | −4.7 ± 2.9 | −7.1 ± 1.7 | 11.3 |  |  | CCCCCCCCCCCCCOC1=C(OCC(O)CO)[C@@H]([C@@H](O)CO)OC1=O (stereo partly drawn) [compound 13, 3-O-(2,3-dihydroxypropyl)-2-O-tridecyl-AsA] |  |  | 96.3 | 87.2 | 63.7 | 23.5 |  | 0.1 ± 8.6 | 46 ± 7.9 | 97.1 ± 2.3 | 108 ± 9.1 |  | 
9 | −5.7 ± 9.5 | −8.1 ± 5.2 | −4.4 ± 4.6 | −8.4 ± 1.0 | 5 |  |  | CCCCCCCCCCCCCCOC1=C(OCC(O)CO)C(=O)O[C@@H]1[C@@H](O)CO (stereo partly drawn) [compound 28, 2-O-(2,3-dihydroxypropyl)-3-O-tetradecyl-AsA] | 0.88 ± 0.20 | 0.83 ± 0.27 | 85.1 | 62.6 | 23 | 18.1 | 0.43 ± 0.11 | 32.8 ± 7.2 | 75.7 ± 3.9 | 95.9 ± 8.4 | 95.2 ± 20.7 | 0.54 ± 0.03 | more than 166 fold
10 | −6.4 ± 3.1 | −6.6 ± 8.7 | −2.2 ± 6.4 | −0.5 ± 4.3 | 12.1 |  |  | CCCCCCCCCCCCOC1=C(OCC(O)CO)C(=O)O[C@@H]1[C@@H](O)CO (stereo partly drawn) [compound 26, 2-O-(2,3-dihydroxypropyl)-3-O-dodecyl-AsA] |  |  | 99.8 | 87.3 | 45.5 | 24.3 |  | 14.1 ± 8.5 | 46 ± 3 | 96.2 ± 2.8 | 89.6 ± 24.4 |  | 
11 |  | −10.0 ± 1.7 |  | −9.2 ± 2.1 | > 100 | −11.3 ± 2.4 | −9.8 ± 3.9 | CCCCCCCOC1=C(OCC(O)CO)C(=O)O[C@@H]1[C@@H](O)CO (stereo partly drawn) [compound 21, 2-O-(2,3-dihydroxypropyl)-3-O-heptyl-AsA] |  |  | 97.9 | 92.7 | 92.7 | 86.3 |  | -6.3 ± 2.7 | 0.9 ± 8.2 | 21 ± 5 | 44.6 ± 6.2 |  | 
12 | −4.6 ± 1.4 | −5.1 ± 2.2 | 2.9 ± 3.9 | 1.0 ± 2.5 | 15.1 |  |  | CCCCCCCCCCCOC1=C(OCC(O)CO)[C@@H]([C@@H](O)CO)OC1=O (stereo partly drawn) [compound 11, 3-O-(2,3-dihydroxypropyl)-2-O-undecyl-AsA] |  |  | 106 | 90.8 | 69 | 25.8 |  | 12.4 ± 3 | 35.4 ± 2.8 | 89.3 ± 1.5 | 100 ± 4.7 |  | 
